Consider two compounds from PMC11456799 (Molecular Therapy. Nucleic Acids, 2024).

Structures are written as SMILES.

The test system of one data set is WA-1/2020 SARS-CoV-2. Also noted: species or system K18-hACE2 mice. The settings on record: mouse, in vivo, po, 150 mg/kg.
The subject of another data set is SARS-CoV-2 Omicron BA.5. Put plainly: In vitro antiviral assay in HeLa-ACE2 cells. Conditions: Severe acute respiratory syndrome coronavirus 2, HeLa-ACE2. Format: cell-based.
In another data set the test system is SARS-CoV-2 WA-1/2020. Put plainly: In vitro antiviral assay in HeLa-ACE2 cells. Type of data set: cell-based. Conditions: Severe acute respiratory syndrome coronavirus 2, HeLa-ACE2.
Another data set is described as follows: in vitro. Conditions: human.
For another data set, the system named is SARS-CoV-2 Omicron BA.1. Kind of data set: In vitro antiviral assay in HeLa-ACE2 cells. Conditions: Severe acute respiratory syndrome coronavirus 2, HeLa-ACE2. Type of data set: cell-based.
The subject of another data set is HeLa-ACE2 cells. Conditions: human.
In data set [1] the test system is SARS-CoV-2 Delta (B.1.617.2). Kind of data set: In vitro antiviral assay in HeLa-ACE2 cells. Format: cell-based. Conditions: Severe acute respiratory syndrome coronavirus 2, HeLa-ACE2.
The subject of data set [2] is SARS-CoV-2 Omicron XBB1.5. Put plainly: In vitro antiviral assay in HeLa-ACE2 cells. Format: cell-based. Conditions: Severe acute respiratory syndrome coronavirus 2, HeLa-ACE2.
A further data set has as its system SARS-CoV-2 Omicron JN.1. Put plainly: In vitro antiviral assay in HeLa-ACE2 cells. Conditions: Severe acute respiratory syndrome coronavirus 2, HeLa-ACE2. Type of data set: cell-based.

On to `CC(C)C(=O)OC[C@H]1O[C@@H](n2ccc(NO)nc2=O)[C@H](O)[C@@H]1O` [MK-4482, molnupiravir], for which the “lung virus titer lowering (positive control)” value with WA-1/2020 SARS-CoV-2 was “approximately 3 log10 ffu/g tissue”.
As to `CC(C)(C)[C@H](NC(=O)C(F)(F)F)C(=O)N1C[C@H]2[C@@H]([C@H]1C(=O)N[C@H](C#N)C[C@@H]1CCNC1=O)C2(C)C` [Nirmatrelvir, nirmatrelvir], the IC50 came out at 0.05 µM with SARS-CoV-2 Omicron BA.5; 0.11 µM in the data set on SARS-CoV-2 WA-1/2020; 0.03 µM in the data set with SARS-CoV-2 Omicron BA.1; 0.04 µM in data set [1]; 0.02 µM in [2]; 0.06 µM in the data set with SARS-CoV-2 Omicron JN.1. For the same compound, the IC90 amounted to 0.14 µM in the data set with SARS-CoV-2 Omicron BA.5; 0.21 µM in the data set with SARS-CoV-2 WA-1/2020; 0.08 µM in the data set on SARS-CoV-2 Omicron BA.1; 0.17 µM in data set [1]; 0.05 µM in data set [2]; 0.15 µM with SARS-CoV-2 Omicron JN.1. The CC50 in the data set “in vitro” and with HeLa-ACE2 cells was greater than 5 µM in each case.
